Test results: publication PMC8876276 (Pharmaceutics, 2022)

Columns and labels:
[1] = tested on: GLP1R localization with the late endosome marker LAMP1; assay: GLP1R colocalization with late endosome marker LAMP1, confocal microscopy, GLP1R-HEK293 cells; format: cell-based; conditions: 100 nM, 30 min; Pearson's correlation coefficient, 3 independent experiments; Figure 6d
Text: Nuclei were counterstained with DAPI. Nuclei were counterstained with DAPI.

[2] = tested on: GLP1R association with early endosomal-associated antigen 1 (EEA1); assay: GLP1R colocalization with early endosome marker EEA1, confocal microscopy, GLP1R-HEK293 cells; format: cell-based; conditions: 100 nM, 30 min; Pearson's correlation coefficient, 3 independent experiments; Figure 5d
Experimental: For immunofluorescence microscopy, GLP1R-HEK293 cells were seeded at a density of 25,000 cells/well in 96-well imaging plates (Greiner Bio-One) coated with poly-D-lysine. […] Twenty-four hours later, the cells were washed once with Optimem + Glutamax (Thermo Fisher Scientific, Watham, MA, USA) + 0.1% bovine serum albumin (BSA) (Sigma-Aldrich, St. Louis, MO, USA), and then incubated with Optimem + 0.1% BSA for 15 min at 37 °C. Compounds were diluted in Optimem + 0.1% BSA and cell incubations were performed at 37 °C for the timepoints indicated. The compounds were removed and the cells were washed three times with phosphate-buffered saline (PBS) prior to fixation for immunofluorescence microscopy or electron microscopy/NanoSIMS as described below. […]
Analysis of confocal microscopy micrographs was performed using scripts developed in Columbus analysis software (PerkinElmer, Waltham, MA, USA). […] Mean fluorescence intensity for the GLP1R staining was measured from this cell membrane ROI. Fluorescence intensities were normalized to those measured from untreated cells and expressed as mean per cell per well. For colocalization analyses, Pearson’s correlation co-efficient was calculated for the correlation between the red and green channels and expressed as mean per cell per well. […]
Pearson’s correlation co-efficient for GLP1R colocalization with EEA1 was calculated from cytoplasmic ROIs (d). […]

## exenatide
[1]
  GLP1R colocalization with LAMP1: increase in the GLP1R colocalization with LAMP1
[2]
  GLP1R colocalization with EEA1: GLP1R colocalization with EEA1 was observed
